Assay results: a melting point compilation (Tetko et al.; mined from patent text by program, amines drawn as free bases though some values may be those of a salt)

SMILES | melting point [°C]
CCOC(=O)c1ccc2oc(CN3CCN(c4ccc(Cl)nn4)CC3)nc2c1 | 140
N=C(NCc1cccnc1)NN=Cc1c(Cl)cccc1Cl | 148 to 151
CCN(CC)C(=O)c1cc2cc(Br)ccc2o1 | 79 to 81
Cn1nc(N)nc1NCCCOc1cccc(CNCc2ccccc2)c1 | 90 to 91
CC(CCCC(C)(C)O)C1CCC2C3CCC4(O)CC(=O)CCC4(C)C3CCC12C (configuration not stated) | 215 to 217
Nc1c(F)c(N2CCC(CC3(N)CC3)C2)c(F)c2c1c(=O)c(C(=O)O)cn2C1CC1F (configuration not stated) | 185 to 193
c1ccc2ncc(N3CCNCC3)cc2c1 | 87.7 to 88.5
O=C1C[C@@H]2[C@@H](/C=C/C(=O)C3CCCCC3)[C@H](OC(=O)c3ccccc3)C[C@@H]2O1 | 151 to 153
CSCc1nc(C)cc(O)n1 | 138
CCOC(=O)NC(=O)C(Cl)C(C)=O (configuration not stated) | 69.5 to 70
O=Cc1c(Cl)ccc(C(=O)O)c1Cl | 188 to 190
CCCCn1cc(C(=O)O)c(=O)c2cc(C)sc21 | 172 to 173
CC(=O)NCc1ccc(CN2CCN(c3ccccn3)CC2)cc1 | 100 to 101
CC(C)(C)c1cc(C(C)(CCC(=O)O)c2ccc(O)c(C(C)(C)C)c2)ccc1O | 155
NC(=O)c1c(N)cccc1OCc1ccccc1 | 158 to 160
CC(=O)Nc1nc(CCc2ccc(CCBr)cc2)cs1 | 153 to 154
CCCCn1cnc2c(Oc3ccccc3)nc(Nc3ccc(OC)cc3OC)nc21 | 97 to 99
c1csc(-c2nc3cnccc3[nH]2)c1 | 265 to 268
CN(C)C1(c2ccccc2)CC=C(c2c[nH]c3ccccc23)CC1 (configuration not stated) | 164 to 172
CC(C)Cn1nc(C(=O)c2cccc(O)c2)c2ccccc21 | 108 to 110
O=Cc1c(F)cccc1Sc1ccc(F)cc1 | 94 to 97
CC(C)c1noc(C2CCN(c3ccc4oc(-c5ccc(S(C)(=O)=O)cc5F)nc4c3)CC2)n1 | 206 to 209
CCCCn1c(=O)n(CCCC2CO2)c(=O)c2c1ncn2C (configuration not stated) | 76 to 78
CC(=O)c1cc([N+](=O)[O-])ccc1NC(=O)CCl | 162
Cc1cccc(C(=O)NC(CC(C)C)C(=O)O)c1SSc1c(C)cccc1C(=O)NC(CC(C)C)C(=O)O (configuration not stated) | 210 to 211
CSC1=Nc2c(C)ccnc2N(C2CC2)c2ncccc21 | 173 to 177
CC(C)(C)N(NC(=O)c1ccccc1)C(=O)Cc1ccccc1 | 167 to 169

SMILES | melting point [°C]
CCS(=O)(=O)Nc1cc(Cc2c[nH]cn2)ccc1F | 122 to 123
CCc1nc(C)[nH]c1Sc1ccccc1 | 171
CCn1cc(CN(C(=O)C2CCCc3ccc(C)cc32)c2ccc(C(C)C)cc2)cn1 (configuration not stated) | 110 to 112
Cc1cccc(C)c1CNc1cc(Br)cc2c1nc(C)n2C | 185
CN(C)c1nc(Cl)nc(N2CCOCC2)n1 | 96 to 97
CC(=O)C(CCCc1ccccc1)n1ncc2c(=O)[nH]c(Cc3ccc(-c4cccnc4)cc3)nc21 (configuration not stated) | 108
CN1c2ccc(S(=O)(=O)N3CCOCC3)cc2S(=O)(=O)NC1C1CCCCC1 (configuration not stated) | 207 to 210
CCOC(=O)C1=C(C)NC(C)=C(C(=O)OCC)C1c1ccccc1/C=C(\CC)C(=O)OCC | 92 to 94
CC(C)n1ccnc1S(=O)(=O)c1ccc(O)cc1 | 152 to 153
CCOC(=O)c1ncn2c1CN(Cc1ccc(OC)cc1OC)C(=O)c1sccc1-2 | 168
c1ccc(-c2cnc(-c3ccccc3)s2)cc1 | 102 to 105
COCC1OC(=Nc2nccs2)c2c1nc1cc(Cl)ccc1c2O (configuration not stated) | > 270
O=Cc1cccc(-c2cnco2)n1 | 151
CCOC(=O)c1ncn2c(C(F)(F)F)cc(-c3ccc(C(F)(F)F)cc3)nc12 | 243
Cc1cc(C)c(C=O)c(O)c1 | 46 to 48
COC(=O)CCC/C=C\[C@@H]1C[C@@H](NS(=O)(=O)c2ccc(Cl)cc2)CN1S(=O)(=O)c1ccc(Cl)cc1 | 95 to 96
Nc1sc(-c2ccc(F)cc2)cc1C(=O)O | 172 to 174
NC(=O)N1CCC(C2c3ncc(Br)cc3CCc3cc(Cl)cc(Cl)c32)CC1 (single isomer, unassigned; (+)) | 102 to 103
CN(C)C1CCc2[nH]c3cc(F)ccc3c2C1 (configuration not stated) | 174 to 176
CC1=C(C(=O)OCC(C)C)C(c2cccc([N+](=O)[O-])c2)c2c(nc(N3CCOCC3)nc2N2CCOCC2)N1 (configuration not stated) | 214
CC(C)n1cc(-c2ccc(NC(=O)c3ccccc3)cc2)c2c(N)ncnc21 | 192 to 195
CCCCCS(=O)(=O)NC(=O)/C=C/c1ccc(OCCC(C)=O)cc1Oc1ncc(C(F)(F)F)cc1Cl | 180 to 181
CCOC(=O)Cc1cc2ccc(Br)cc2[nH]1 | 67 to 69
Cc1sc2c(c1C)C(c1ccc(Cl)cc1)=NC(N)c1nnc(C)n1-2 (configuration not stated) | 192 to 197
CC[C@@]12C[C@@](C)(O)[C@](O)(c3ccccc3)C[C@H]1CCc1cc(OCC(C)(C)O)ccc12 | 190 to 193
COc1c(Cl)cc2c(N)nc(N3CCN(C(=O)C4CCCO4)CC3)nc2c1OC (configuration not stated) | 192 to 193
CCOC(=O)c1ncn2c1CN=C(c1ccccc1Cl)c1cc([N+](=O)[O-])ccc1-2 | 250 to 252

The next lines start with the values.

melting point [°C] | SMILES
255 | O=c1nc(-c2cccc(Cl)c2)c2cc(C(c3ccc(Cl)cc3)n3ccnc3)ccc2[nH]1 (configuration not stated)
281 to 283 | NC(=O)c1c(Cl)c(-c2ccccc2)n2c1CN(C(=O)Nc1ccc(C(=O)O)cc1)CC2
118 to 120 | COc1ccc(S(=O)(=O)C(CC(=O)NO)Cc2ccccc2)cc1 (configuration not stated)
155 to 156 | N#CN=C(Nc1cccnc1)NC1CCCC1
61 | O=C1CCC(c2ccc(F)c(F)c2)CC1
123 to 125 | CC(C)c1nc(-c2cccs2)cc(-c2ccc(F)cc2)c1C=O
166 to 168 | N#Cc1c(Cl)cccc1CSCCNC(=O)c1c(Cl)cccc1Cl
172 to 175 | NC1CCCN(c2ncc3ncnc(Nc4ccc(F)c(Cl)c4)c3n2)C1 (configuration not stated)
205 to 210 | CC(C)(C)c1cccc(C(=O)Nc2ccccc2C(=O)NCCc2ncc[nH]2)c1
47 to 48 | C[C@@H](O)COc1c(N)ccc(F)c1F
89 to 90 | CC(=O)NCCCc1ccc(CCl)cc1
106 to 107 | COC(=O)c1cc(OCc2ccc3ccccc3n2)n(C(C)C)n1
193 to 194 | COc1cccc(CN2C(=O)C3CCCC3N(C(=O)CN3C(=O)c4ccccc4C3=O)c3ccccc32)c1 (configuration not stated)
124 to 125 | CC(=O)OCC1CC(Nc2cc(Cl)c(Cl)cc2N)C(OC(C)=O)C1OC(C)=O (configuration not stated)
175 | CCCCn1cncc1C(O)(c1ccc(Cl)cc1)c1ccc2c(c1)c(-c1cccc(Cl)c1)cc(=O)n2C (configuration not stated)
174 | COc1ccc(CC2NC(=O)NC2=O)cc1 (configuration not stated)
193 to 195 | O=C(Nc1ccc2cc(CN3CCCC3)ccc2c1)N1CCC(c2ccccc2)CC1
253 to 255 | CCCc1[nH]c2cc(C(N)=O)ccc2c1C(=O)C1CCC1
231 to 233 | COc1ccc(NC(=O)C2CCCCn3c2nc(-c2ccncn2)cc3=O)c(OC)n1 (racemic)
144 to 145 | CC(C)SC(Cc1ccc(OCCN(C)c2nc3ccccc3o2)cc1)C(=O)O (configuration not stated)
120 | COc1ccc(NC(C)=O)cc1F
131 to 132 | CC1(C)CC(=C(c2ccccc2)c2ccc(OCCO)cc2)CC(C)(C)C1
110 | CCc1nn(CCOc2ccc(C=O)cc2)c(=O)c2ccccc12
103 to 106 | CC(n1cncn1)C(O)(Cn1cncn1)c1ccc(F)cc1 (configuration not stated)

melting point [°C] | SMILES
78 to 80 | CCC1(CC)CN(C(C)(C)C)C(=O)C(C)(CC)N1OC(C)(C)C#N (configuration not stated)
183 to 184 | Cn1cc(C(=O)C(Cl)Cl)c(=O)c(-c2cccc(F)c2)c1
97 to 99 | CCOC(=O)C(O)Cc1ccc(OCCNC(=O)c2ccc(-c3ccccn3)cc2)cc1 (configuration not stated)
108 to 109 | CCOC(=O)c1ccc(CN2C(=O)c3ccccc3C2=O)o1
163 to 165 | CCOC(=O)C1=C(N)C(OCC)=NS1(=O)=O
121 to 124 | Nc1ncnc2c1ncn2[C@@H]1C=C[C@H](CO)C1
92 to 104 | CNC(=O)CN1CCc2cc(Nc3ncc(Cl)c(N[C@@H]4CCCC[C@H]4NS(C)(=O)=O)n3)c(OC)cc2CC1
293 to 295 | NC(=O)c1ccc(-c2cnc3[nH]c(=O)n(CC4CCCCC4)c3n2)cc1
217 to 219 | COC(=O)C1C(=O)Nc2ccccc2CC1c1ccc(OC)cc1 (configuration not stated)
188 | CN(C)C(=O)Nc1ccc(Oc2ccc3sncc3c2)c(C(F)(F)F)c1
253 to 254 | COc1cc(Cc2cnc(N)nc2N)cc2c1OC(C)(C)C=C2c1cccc([N+](=O)[O-])c1
220 to 228 | CN(CC(=O)O)[C@H]1CC[C@H](Nc2ncc3ncnc(Nc4ccc(F)c(Cl)c4)c3n2)CC1
280 to 282 | CN1CCN(Cc2c(O)c(O)c(O)c3c(=O)cc(-c4ccccc4)oc23)CC1
196 to 198 | O=C(O)c1ccc2c(c1)Sc1ccccc1CC2
160 to 163 | O=C(Nc1ccc(C(CC2CCCC2)C(=O)Nc2ccccn2)cc1)c1cccnc1 (configuration not stated)
134 to 135 | COC(=O)c1ccc(CN2CCN(C(=O)c3ccc(Cl)cc3)CC2)cc1
84.8 to 85.4 | CCCCCCc1nc2c(N)nc3ccccc3c2n1CCCCNS(=O)(=O)c1ccccc1
147 to 150 | N#Cc1c(Cl)c(Cl)c(Oc2ccccc2)c(Cl)c1C#N
117 to 119 | O=C(O)c1cc(Cl)ccc1C(O)=NCc1ccccc1
292 to 296 | Cc1[nH]c2ccc(C3=NNC(=O)NC3C)cc2c1C (configuration not stated)
243 to 245 | COc1cccc2c(-c3ccnc(N[C@H]4CC[C@H](O)CC4)n3)n[nH]c12
142 to 144 | COc1cc(O)c2c(c1O)CC=CC2
25 to 27 | CCOC(=O)CC(=O)CCNC(=O)OCc1ccccc1
153 to 157 | CC(C)(C)Nc1nc(Cl)cc(N2CCCC2)n1
